Reference: patent US9144239B2, “Macrocyclic picolinamides as fungicides” (DOW AGROSCIENCES LLC, priority 2012, dated 2015)
Like-named read-outs stand apart in the source and are kept apart here.

Columns and labels:
Format in all cases: in vivo
[1] = test system: Mycosphaerella graminicola; anamorph: Septoria tritici; assay: Fungicidal activity: leaf blotch of wheat (SEPTTR), wheat seedlings; details: Zymoseptoria tritici, 100 ppm, wheat
Summary of the method: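 Compounds in acetone were diluted with nine volumes of water containing 110 ppm Triton X-100 and sprayed to run-off on Yuma wheat seedlings at first-leaf stage. Septoria tritici spores were inoculated before or after treatment, followed by dew chambers at 100% RH and 20 °C, then greenhouse at 20 °C. Severity (0–100%) was scored once untreated plants were fully diseased; control was calculated relative to untreated plants.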

[2] = test system: Puccinia triticina; synonym: Puccinia recondita f. sp. tritici; assay: Fungicidal activity: wheat brown rust (PUCCRT), wheat seedlings; details: 100 ppm, wheat
Summary of the method: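 Wheat (Yuma) seedlings at first-leaf stage, inoculated with Puccinia triticina spores before or after treatment, held overnight in dark dew room at 22° C, 100% RH, then greenhouse at 24° C. Acetone solutions diluted with nine volumes water containing 110 ppm Triton X-100, sprayed to run-off. Percent disease control derived from severity (0–100%) relative to untreated plants.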

Venturia inaequalis = assay: Fungicidal activity: apple scab (VENTIN); details: 24 h, 1 Day Protectant, read-out: Disease Control VENTIN 1 DP
Description: Technical grades of materials were dissolved in acetone, which were then mixed with nine volumes of water containing 110 ppm Triton X-100. The fungicide solutions were applied onto wheat seedlings using an automated booth sprayer to run-off. All sprayed plants were allowed to air dry prior to further handling. Wheat plants (variety Yuma) were grown from seed in a greenhouse in 50% mineral soil/50% soil-less Metro mix until the first leaf was fully emerged, with 7-10 seedlings per pot. These plants were inoculated with an aqueous spore suspension of Septoria tritici either prior to or after fungicide treatments. After inoculation the plants were kept in 100% relative humidity (one day in a dark dew chamber followed by two to three days in a lighted dew chamber at 20° C.) to permit spores to germinate and infect the leaf. The plants were then transferred to a greenhouse set at 20° C. for disease to develop. When disease symptoms were fully expressed on the 1st leaves of untreated plants, infection levels were assessed on a scale of 0 to 100 percent disease severity. Percent disease control was calculated using the ratio of disease severity on treated plants relative to untreated plants. Evaluation of Fungicidal Activity: Apple Scab (Venturia inaequalis; Bayer Code […]) Apple seedlings (variety McIntosh) were grown in soil-less Metro mix, with one plant per pot. Seedlings with two expanding young leaves at the top (older leaves at bottom of the plants were trimmed) were used in the test. Plants were inoculated with a spore suspension of Venturia inaequalis 24 hr after fungicide treatment and kept in a 22° C. dew chamber with 100% RH for 48 hr, and then moved to a greenhouse set at 20° C. for disease to develop. Fungicide formulation, application and disease assessment on the sprayed leaves followed the procedures as described in the Example A.

Uncinula necator = assay: Fungicidal activity: grape powdery mildew (UNCINE); details: Erysiphe necator, 24 h, 1 Day Protectant, read-out: Disease Control UNCINE 1 DP
Description: Technical grades of materials were dissolved in acetone, which were then mixed with nine volumes of water containing 110 ppm Triton X-100. The fungicide solutions were applied onto wheat seedlings using an automated booth sprayer to run-off. All sprayed plants were allowed to air dry prior to further handling. Wheat plants (variety Yuma) were grown from seed in a greenhouse in 50% mineral soil/50% soil-less Metro mix until the first leaf was fully emerged, with 7-10 seedlings per pot. These plants were inoculated with an aqueous spore suspension of Septoria tritici either prior to or after fungicide treatments. After inoculation the plants were kept in 100% relative humidity (one day in a dark dew chamber followed by two to three days in a lighted dew chamber at 20° C.) to permit spores to germinate and infect the leaf. The plants were then transferred to a greenhouse set at 20° C. for disease to develop. When disease symptoms were fully expressed on the 1st leaves of untreated plants, infection levels were assessed on a scale of 0 to 100 percent disease severity. Percent disease control was calculated using the ratio of disease severity on treated plants relative to untreated plants. Evaluation of Fungicidal Activity: Grape Powdery Mildew (Uncinula necator; Bayer Code […]) Grape seedlings (variety Carignane) were grown in soil-less Metro mix, with one plant per pot, and used in the test when approximately one month old. Plants were inoculated 24 hr after fungicide treatment by shaking spores from infected leaves over test plants. Plants were maintained in a greenhouse set at 20° C. until disease was fully developed. Fungicide formulation, application and disease assessment on the sprayed leaves followed the procedures as described in the Example A.

[3] = test system: Puccinia triticina; synonym: Puccinia recondita f. sp. tritici; assay: Fungicide mobility (dropline mobility test): wheat brown rust (PUCCRT); details: 1 ug/leaf
Summary of the method: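 A 2 μl drop of formulated compound (EC blank, 110 ppm Triton X-100 water) was applied to a line 5 cm from the tip of primary leaves of "Yuma" wheat seedlings, 6 replicates. Inoculation with PUCCRT was done 1 day after or 3 days before application. Once disease was fully expressed on controls, the acropetal disease-free zone was measured as percent of line-to-tip distance.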

[4] = test system: Magnaporthe grisea; anamorph: Pyricularia oryzae; assay: whole plant or invertebrate; details: 24 h, read-out: Disease Control PYRIOR 1 DP
Leptosphaeria nodorum = assay: Fungicidal activity: wheat glume blotch (LEPTNO); details: Parastagonospora nodorum, 24 h, 1 Day Protectant, read-out: Disease Control LEPTNO 1 DP
Description: Technical grades of materials were dissolved in acetone, which were then mixed with nine volumes of water containing 110 ppm Triton X-100. The fungicide solutions were applied onto wheat seedlings using an automated booth sprayer to run-off. All sprayed plants were allowed to air dry prior to further handling. Wheat plants (variety Yuma) were grown from seed in a greenhouse in 50% mineral soil/50% soil-less Metro mix until the first leaf was fully emerged, with 7-10 seedlings per pot. These plants were inoculated with an aqueous spore suspension of Septoria tritici either prior to or after fungicide treatments. After inoculation the plants were kept in 100% relative humidity (one day in a dark dew chamber followed by two to three days in a lighted dew chamber at 20° C.) to permit spores to germinate and infect the leaf. The plants were then transferred to a greenhouse set at 20° C. for disease to develop. When disease symptoms were fully expressed on the 1st leaves of untreated plants, infection levels were assessed on a scale of 0 to 100 percent disease severity. Percent disease control was calculated using the ratio of disease severity on treated plants relative to untreated plants. Evaluation of Fungicidal Activity: Wheat Glume Blotch (Leptosphaeria nodorum; Bayer Code […]) Wheat plants (variety Yuma) were grown from seed in a greenhouse in 50% mineral soil/50% soil-less Metro mix until the first leaf was fully emerged, with 7-10 seedlings per pot. These plants were inoculated with an aqueous spore suspension of Leptosphaeria nodorum 24 hr after fungicide treatments. After inoculation the plants were kept in 100% relative humidity (one day in a dark dew chamber followed by two days in a lighted dew chamber at 20° C.) to permit spores to germinate and infect the leaf. The plants were then transferred to a greenhouse set at 20° C. for disease to develop. Fungicide formulation, application and disease assessment followed the procedures as described in the Example A.

Cercospora beticola = assay: Fungicidal activity: leaf spot of sugar beets (CERCBE); details: 24 h, 1 Day Protectant, sugar beet, read-out: Disease Control CERCBE 1DP
Description: Technical grades of materials were dissolved in acetone, which were then mixed with nine volumes of water containing 110 ppm Triton X-100. The fungicide solutions were applied onto wheat seedlings using an automated booth sprayer to run-off. All sprayed plants were allowed to air dry prior to further handling. Wheat plants (variety Yuma) were grown from seed in a greenhouse in 50% mineral soil/50% soil-less Metro mix until the first leaf was fully emerged, with 7-10 seedlings per pot. These plants were inoculated with an aqueous spore suspension of Septoria tritici either prior to or after fungicide treatments. After inoculation the plants were kept in 100% relative humidity (one day in a dark dew chamber followed by two to three days in a lighted dew chamber at 20° C.) to permit spores to germinate and infect the leaf. The plants were then transferred to a greenhouse set at 20° C. for disease to develop. When disease symptoms were fully expressed on the 1st leaves of untreated plants, infection levels were assessed on a scale of 0 to 100 percent disease severity. Percent disease control was calculated using the ratio of disease severity on treated plants relative to untreated plants. Evaluation of Fungicidal Activity: Leaf Spot of Sugar Beets (Cercospora beticola; Bayer Code CERCBE) Sugar beet plants (variety HH88) were grown in soil-less Metro mix and trimmed regularly to maintain a uniform plant size prior to test. Plants were inoculated with a spore suspension 24 hr after fungicide treatments. Inoculated plants were kept in a dew chamber at 22° C. for 48 hr then incubated in a greenhouse set at 24° C. under a clear plastic hood with bottom ventilation until disease symptoms were fully expressed. Fungicide formulation, application and disease assessment on the sprayed leaves followed the procedures as described in the Example A.

[5] = test system: Blumeria graminis f.sp. hordei; synonym: Erysiphe graminis f.sp. hordei; assay: Fungicidal activity: barley powdery mildew (ERYSGH); details: 24 h, 1 Day Protectant, read-out: Disease Control ERYSGH 1DP
Description: Technical grades of materials were dissolved in acetone, which were then mixed with nine volumes of water containing 110 ppm Triton X-100. The fungicide solutions were applied onto wheat seedlings using an automated booth sprayer to run-off. All sprayed plants were allowed to air dry prior to further handling. Wheat plants (variety Yuma) were grown from seed in a greenhouse in 50% mineral soil/50% soil-less Metro mix until the first leaf was fully emerged, with 7-10 seedlings per pot. These plants were inoculated with an aqueous spore suspension of Septoria tritici either prior to or after fungicide treatments. After inoculation the plants were kept in 100% relative humidity (one day in a dark dew chamber followed by two to three days in a lighted dew chamber at 20° C.) to permit spores to germinate and infect the leaf. The plants were then transferred to a greenhouse set at 20° C. for disease to develop. When disease symptoms were fully expressed on the 1st leaves of untreated plants, infection levels were assessed on a scale of 0 to 100 percent disease severity. Percent disease control was calculated using the ratio of disease severity on treated plants relative to untreated plants. Evaluation of Fungicidal Activity: Barley Powdery Mildew (Blumeria graminis f.sp. hordei; Synonym: Erysiphe graminis f.sp. hordei; Bayer Code […]) Barley seedlings (variety Harrington) were propagated in soil-less Metro mix, with each pot having 8 to 12 plants, and used in the test when first leaf was fully emerged. Test plants were inoculated by dusting with infected stock plants 24 hr after fungicide treatments. After inoculation the plants were kept in a greenhouse set at 20° C. for disease to develop. Fungicide formulation, application and disease assessment on the sprayed leaves followed the procedures as described in the Example A.

[6] = 24 h, 1 Day Protectant, read-out: Disease Control SEPTTR 1DP
[7] = 72 h, 3 Day Curative, read-out: Disease Control SEPTTR 3DC
[8] = 24 h, 1 Day Protectant, read-out: Disease Control PUCCRT 1DP
[9] = 72 h, 3 Day Curative, read-out: Disease Control PUCCRT 3DC

Row | SMILES | pest or weed control at 100 ppm [1, 6] | pest or weed control at 100 ppm [1, 7] | pest or weed control at 100 ppm [2, 8] | pest or weed control at 100 ppm (Venturia inaequalis) | pest or weed control at 100 ppm (Uncinula necator) | pest or weed control at 100 ppm [2, 9] | pest or weed control at 1 µg/leaf ([3]; 24 h, 1 Day Protectant Mobility, read-out: Dropline Mobility Test PUCCRT 1DPM) | pest or weed control at 1 µg/leaf ([3]; 72 h, 3 Day Curative Mobility, read-out: Dropline Mobility Test PUCCRT 3DCM) | pest or weed control at 100 ppm [4] | pest or weed control at 100 ppm (Leptosphaeria nodorum) | pest or weed control at 100 ppm (Cercospora beticola) | pest or weed control at 100 ppm [5]
1 | COc1ccnc(C(=O)N[C@H]2COC[C@H](OCc3ccccc3)[C@@H](OCc3ccccc3)COC2=O)c1OCOC(=O)C(C)C [Compound 6] | 0 to 80% | 0 to 80% | 80 to 100% | 0 to 80% | 0 to 80% | – | – | – | – | – | – | –
2 | CCCCO[C@H]1[C@H](C)OC(=O)[C@@H](NC(=O)c2nccc(OC)c2OCOC(C)=O)COC[C@@H]1OCc1ccccc1 [Compound 34] | 80 to 100% | 80 to 100% | 80 to 100% | 80 to 100% | 80 to 100% | 80 to 100% | 0 to 80% | 80 to 100% | – | – | – | –
3 | CCCCO[C@H]1COC[C@H](NC(=O)c2nccc(OC)c2OCOC(C)=O)C(=O)O[C@@H](C)[C@@H]1OCc1ccccc1 [Compound 35] | 80 to 100% | 80 to 100% | 80 to 100% | 0 to 80% | 0 to 80% | 80 to 100% | – | – | – | – | – | –
4 | CCCCO[C@H]1COC[C@H](NC(=O)c2nccc(OC)c2OCOC(C)=O)C(=O)O[C@@H](C)[C@@H]1OC(=O)C(C)C [Compound 47] | 80 to 100% | 80 to 100% | 80 to 100% | 80 to 100% | 0 to 80% | 80 to 100% | – | – | 80 to 100% | – | – | –
5 | CCCCO[C@H]1COC[C@H](NC(=O)c2nccc(OC)c2OCOC(C)=O)C(=O)O[C@@H](C)[C@@H]1OCCC [Compound 45] | 80 to 100% | 80 to 100% | 80 to 100% | 0 to 80% | 80 to 100% | 80 to 100% | – | – | – | – | – | –
6 | COc1ccnc(C(=O)N[C@H]2COC[C@H](Oc3ccc(F)cc3)[C@@H](OCC(C)C)[C@H](C)OC2=O)c1OCOC(C)=O [Compound 228] | 80 to 100% | 80 to 100% | 80 to 100% | – | – | 80 to 100% | – | – | – | 80 to 100% | 0 to 80% | 0 to 80%
